As usually defined, the logP is the decadic logarithm of the partition coefficient of the neutral form, usually between octanol and water. Low readings indicate lower lipophilicity, high ones higher lipophilicity. As to `CNC(=O)Oc1ccccc1OC(C)C`, the logP amounted to 1.55.

Take `Cn1cc(C(=O)Nc2cccc3c2[C@@H]2CC[C@H]3C2=C(Cl)Cl)c(C(F)F)n1`: the logP worked out at 4.34.

Take `CC(C)(C)C(O)C(Cc1ccc(Cl)cc1Cl)n1cncn1` (stereo unspecified): the logP amounted to 3.69.

`CCCCC(C#N)(Cn1cncn1)c1ccc(Cl)cc1` (stereo unspecified) yielded a log partition coefficient (logP) of 3.06.

Consider `CS(=O)(=O)c1ccc(C(=O)C2C(=O)CCCC2=O)c([N+](=O)[O-])c1`, for which the logP is 0.9.

`CC(C)(C)[C@H](O)[C@H](Cc1ccc(Cl)cc1)n1cncn1` came in with a logP of 3.09.

With `CC(C)N1C(=O)N(c2ccccc2)CSC1=NC(C)(C)C`, the logP was 4.92.

In the case of `CC1(C)CCC(Cc2ccc(Cl)cc2)C1(O)Cn1cncn1` (stereo unspecified), the logP worked out at 3.82.

Turning to `C=CCN(CC=C)C(=O)C(Cl)Cl`, the logP came out at 1.77.

In the case of `COc1cc(OC)nc(NC(=O)NS(=O)(=O)c2ncccc2OCC(F)(F)F)n1`, the logP is 1.85.

As to `Cc1nc(N(C)C)nc(OC(=O)N(C)C)c1C`, the logP was 1.75.

The compound `CO/N=C(/C1=NOCCO1)c1ccccc1Oc1ncnc(Oc2ccccc2Cl)c1F` registered a logP of 2.95.

For the compound `CCNc1nc(Cl)nc(NC(C)C)n1`, the logP is 2.54.

As for `CO/C=C(/C(=O)OC)c1ccccc1Oc1cc(Oc2ccccc2C#N)ncn1`, the logP came out at 2.53.

Regarding `Nc1ccc(C(F)(F)F)cc1`, the logP stood at 2.31.

Compound `COC(=O)C(C)N(C(=O)c1ccco1)c1c(C)cccc1C` (stereo unspecified) yielded a logP of 2.59.

Take `Cc1cc(C(F)(F)F)nn1CC(=O)N1CCC(c2nc(C3=NOC(c4c(F)cccc4F)C3)cs2)CC1` (stereo unspecified): the logP amounted to 3.6.

The compound `C#CCOc1ccc(CCNC(=O)C(OCC#C)c2ccc(Cl)cc2)cc1OC` (stereo unspecified) had a lipophilicity (logP) of 3.16.

In turn, `CON(C(=O)c1cn(C)nc1C(F)F)C(C)Cc1c(Cl)cc(Cl)cc1Cl` (stereo unspecified) gave a logP of 3.77.

On to `CC1=CC(=O)CC(C)(C)[C@@]1(O)/C=C/C(C)=C\C(=O)O`, for which the logP was determined as 1.71.

In turn, `FC(F)C(F)(F)OCC(Cn1cncn1)c1ccc(Cl)cc1Cl` (stereo unspecified) returned a logP of 3.49.

In the case of `CC(C)(C)N(NC(=O)c1ccccc1)C(=O)c1ccccc1`, the log partition coefficient (logP) came out at 2.43.

`O=[N+]([O-])C=C1CCCN1Cc1ccc(Cl)nc1`: the logP is 0.7.

The compound `CCCCOC(=O)c1ccccc1C(=O)OCCCC` yielded a logP of 4.46.

For `C#CC(C)(C)NC(=O)c1cc(Cl)cc(Cl)c1`, the logP was 3.23.

Take `CS(=O)(=O)c1ccccc1`: the logP is 0.51.

The compound `c1ccc2ccccc2c1` showed a logP of 3.37.

`CCCCCOC(=O)C(C)Oc1ccc(Oc2ccc(C(F)(F)F)cn2)cc1` (stereo unspecified) gave a logP of 5.6.

The compound `CCOCn1c(-c2ccc(Cl)cc2)c(C#N)c(Br)c1C(F)(F)F` showed a logP of 5.24.

Turning to `Cc1cc(C)nc(Nc2ccccc2)n1`, the logP was 2.84.

In turn, `CC(=NC#N)N(C)Cc1ccc(Cl)nc1` registered a logP of 0.82.

`CC(C)N(Cc1ccccc1)C(=O)C(C)(C)C` gave a logP of 2.98.

`Nc1cc(Cl)cc(Cl)c1` returned a logP of 2.89.

Regarding `COc1nc(C)nc(NC(=O)NS(=O)(=O)c2ccccc2OCCCl)n1`, the logP stood at 1.72.

`CC(=O)Nc1cccnc1` showed a logP of 0.38.

In turn, `COP(=S)(OC)SCN1C(=O)c2ccccc2C1=O` gave a logP of 2.71.

In turn, `C[C@@H](Oc1ccc(Oc2ccc(C#N)cc2F)cc1)C(=O)O` showed a logP of 3.08.

`CC(C1CC1)C(O)(Cn1cncn1)c1ccc(Cl)cc1` (stereo unspecified) returned a logP of 2.99.

For `Nc1c(Cl)cccc1Cl`, the logP came to 2.75.

`CCCCn1nnc2ccccc21`: the logP was 2.52.

`c1ccc2[nH]cnc2c1` came in with a logP of 1.29.

`CC(C)(C)C(O)(CCc1ccc(Cl)cc1)Cn1cncn1` (stereo unspecified) yielded a logP of 3.59.

`O=C(CCl)Nc1ccccc1` showed a logP of 1.54.

For `O=C(O)COc1ccc(Cl)cc1Cl`, the logP amounted to 2.66.

`CC(C)N1C(=O)c2ccccc2NS1(=O)=O`: the logP is 2.75.

For the compound `COC(=O)c1ccccc1CS(=O)(=O)NC(=O)Nc1nc(OC)cc(OC)n1`, the logP turned out to be 2.36.

`c1ccc(-c2ccccc2)cc1`: the logP turned out to be 3.96.

The compound `CCCC(=O)c1c(C)cc(C)c(C2CC(=O)C(/C(CC)=N/OCC)=C(O)C2)c1C` (stereo unspecified) had a logP of 4.74.

As for `CCCC1COC(Cn2cncn2)(c2ccc(Cl)cc2Cl)O1` (stereo unspecified), the logP is 3.57.

`COC(=O)c1ccccc1C(=O)OC` showed a logP of 1.49.

As to `CSc1nnc(C(C)(C)C)c(=O)n1N`, the logP turned out to be 1.61.

As to `Cc1[nH]n(C)c(=O)c1C(=O)c1ccc(C(F)(F)F)cc1S(C)(=O)=O`, the logP came out at 0.63.

Take `CC(C)N(C)S(=O)(=O)NC(=O)c1cc(-n2c(=O)cc(C(F)(F)F)n(C)c2=O)c(F)cc1Cl`: the logP was 2.33.

`O=C(NCCc1ncc(C(F)(F)F)cc1Cl)c1ccccc1C(F)(F)F` returned a logP of 3.26.

`CCCCC(O)(Cn1cncn1)c1ccc(Cl)cc1Cl` (stereo unspecified) came in with a logP of 3.8.

`c1ccc(-c2ccncn2)cc1` displayed a lipophilicity (logP) of 1.9.

Turning to `OC(Cn1cncn1)(c1ccc(F)cc1)c1ccccc1F` (stereo unspecified), the logP was 2.26.

On to `CC(C)N(C(=O)CCl)c1ccccc1`, for which the logP worked out at 2.12.

Take `COc1nc(C)nc(NC(=O)NS(=O)(=O)c2ccccc2CCC(F)(F)F)n1`: the logP stood at 2.87.

As for `COC(=O)NCc1cc(/C(C)=N/OCc2cccc(C)n2)ccc1Cl`, the logP was 3.64.

In turn, `N#Cc1cnc2ccccc2c1` returned a logP of 1.64.

`CC1(c2ccc(Oc3ccccc3)cc2)OC(=O)N(Nc2ccccc2)C1=O` (stereo unspecified): the log partition coefficient (logP) was found to be 4.78.

The compound `N#Cc1cc(Br)c(O)c(Br)c1` yielded a logP of 2.9.

As for `CC(Oc1ccc(Oc2ccc(Cl)cc2Cl)cc1)C(=O)O` (stereo unspecified), the lipophilicity (logP) came out at 4.69.

In turn, `CN(C)C(=O)Nc1cc(C(C)(C)C)on1` gave a logP of 1.91.

Turning to `O=[N+]([O-])c1ccccc1`, the logP amounted to 1.79.

For `CCSC(=O)N(CC(C)C)CC(C)C`, the logP was determined as 4.1.

`N#CN=C1SCCN1Cc1ccc(Cl)nc1` came in with a logP of 1.26.

`COc1c(Cl)ccc(Cl)c1C(=O)O` showed a logP of 2.52.

Consider `CCOC(=O)c1ccc([N+](=O)[O-])cc1`, for which the logP amounted to 2.43.

`COC(=O)C(C)Oc1ccc(Oc2ccc(Cl)cc2Cl)cc1` (stereo unspecified) gave a logP of 4.89.

As to `c1ccc2[nH]ccc2c1`, the logP was found to be 2.15.

Turning to `CCON=C(CC)C1=C(O)CC(c2c(C)cc(C)cc2C)CC1=O` (stereo unspecified), the logP amounted to 4.77.

For `CCN(CC)C(=O)C(C)Oc1cccc2ccccc12` (stereo unspecified), the logP came to 3.22.

As for `CCc1cccc(C)c1N(C(=O)CCl)C(C)COC` (stereo unspecified), the logP came out at 3.01.

For `CC1COC(Cn2cncn2)(c2ccc(Oc3ccc(Cl)cc3)cc2Cl)O1` (stereo unspecified), the logP was 4.24.

In turn, `COC(=O)Cc1ccccc1` registered a logP of 1.75.

On to `CC(=O)Nc1ccccc1C(F)(F)F`, for which the logP turned out to be 1.14.

For `CCNc1nc(Cl)nc(NCC)n1`, the logP worked out at 2.09.

For `COCC(=O)N(c1c(C)cccc1C)C(C)C(=O)OC` (stereo unspecified), the logP came out at 1.6.

Consider `COC(=O)N(C(=O)N1CO[C@@]2(C(=O)OC)Cc3cc(Cl)ccc3C2=N1)c1ccc(OC(F)(F)F)cc1`, for which the logP was 4.75.

`Cc1cc(C)nc(NC(=O)NS(=O)(=O)c2ccccc2C(=O)OC2COC2)n1` gave a logP of 1.07.

With `COC(=O)c1ccc(Cl)cc1`, the logP amounted to 2.81.

Turning to `CO/C=C(/C(=O)OC)c1ccccc1COc1cc(C(F)(F)F)nc(OC(C)C)n1`, the log partition coefficient (logP) amounted to 4.18.

`Fc1ccc(Oc2ccnc3cc(Cl)cc(Cl)c23)cc1`: the logP stood at 5.27.

`CCCN(CCOc1c(Cl)cc(Cl)cc1Cl)C(=O)n1ccnc1` displayed a logP of 4.02.

On to `CN(C)C(=O)Nc1ccc(Cl)c(Cl)c1`, for which the logP was 2.74.

As for `CCOc1cc(Oc2ccc(C(F)(F)F)cc2Cl)ccc1[N+](=O)[O-]`, the logP was determined as 5.19.

For `CCN1C(=O)C(=O)c2ccc(OC)cc2C1=O`, the logP came out at 1.4.

As for `CS(=O)(=O)c1ccc(C(=O)C2C(=O)CCCC2=O)c(Cl)c1COCC(F)(F)F`, the logP amounted to 2.15.

Turning to `CCCCOC(=O)C(C)Oc1ccc(Oc2ccc(C(F)(F)F)cn2)cc1` (stereo unspecified), the logP came to 5.01.

`C[C@@H](Oc1ccc(Oc2ccc(C(F)(F)F)cn2)cc1)C(=O)O` had a logP of 3.21.

Regarding `CC(C)(C)C(=O)C(Oc1ccc(Cl)cc1)n1cncn1` (stereo unspecified), the logP turned out to be 3.11.

In the case of `Cc1cc(Cl)ccc1OCC(=O)O`, the logP turned out to be 2.79.

As to `CCOC(=O)C1CC(=O)C(=C(O)C2CC2)C(=O)C1` (stereo unspecified), the logP was found to be 2.02.

The compound `COC(=O)c1ccccc1S(=O)(=O)NC(=O)Nc1nc(OC(F)F)cc(OC(F)F)n1` returned a lipophilicity (logP) of 3.49.

With `CNC(=O)Nc1ccc(C(=O)O)cc1`, the logP worked out at 1.16.

`COC(=O)c1cc(Oc2ccc(Cl)cc2Cl)ccc1[N+](=O)[O-]`: the logP amounted to 4.53.

`CC(C)CC(C)c1sccc1NC(=O)c1cn(C)nc1C(F)(F)F` (stereo unspecified) gave a logP of 3.96.

As for `C[Si](Cn1cncn1)(c1ccc(F)cc1)c1ccc(F)cc1`, the lipophilicity (logP) worked out at 3.76.

As to `Cc1ccc(NC(=O)N(C)C)cc1Cl`, the logP was 2.43.

Regarding `Cc1cc(C2CC2)nc(Nc2ccccc2)n1`, the logP came out at 3.91.

`CS(=O)(=O)c1ccc(C(=O)C2C(=O)CCCC2=O)c(Cl)c1` gave a logP of 1.2.

In turn, `O=[N+]([O-])c1c(Cl)c(Cl)cc(Cl)c1Cl` showed a lipophilicity (logP) of 4.28.

Take `CO/N=C(/C(=O)OC)c1ccccc1CO/N=C(\C)c1cccc(C(F)(F)F)c1`: the logP was determined as 4.45.

For `c1ccc2c(c1)Nc1ccccc1S2`, the logP was 4.08.

For `CCCC(=O)c1ccccc1`, the logP turned out to be 2.68.

Compound `Fc1ccc([C@@]2(Cn3cncn3)O[C@@H]2c2ccccc2Cl)cc1` gave a logP of 3.3.

Compound `N#Cc1c[nH]cc1-c1cccc2c1OC(F)(F)O2` came in with a logP of 4.16.

Compound `Oc1cccc2cccnc12` had a logP of 1.93.

For the compound `CCOC(=O)C(C)Oc1ccc(Oc2ccc(C(F)(F)F)cn2)cc1` (stereo unspecified), the logP was 3.9.

Regarding `Nc1ccc(Cl)c(Cl)c1`, the logP was found to be 2.62.

In turn, `COC(=O)C=Cc1ccccc1` had a logP of 2.67.

For `c1ccc(Sc2ccccc2)cc1`, the logP was 4.43.

`N#Cc1c(Cl)c(Cl)c(Cl)c(C#N)c1Cl` registered a logP of 2.93.

On to `c1ccc(-c2ccc(C(c3ccccc3)n3ccnc3)cc2)cc1` (stereo unspecified), for which the logP was 5.12.

The record behind these values is the SangsterLogP compilation.
